Our source for the viability, AUC(0-t) and Cmax values is patent publication US20170008921A1, “C-3 NOVEL TRITERPENONE WITH C-28 REVERSE AMIDE DERIVATIVES AS HIV INHIBITORS” (HETERO RESEARCH FOUNDATION, priority 2015, published 2017).

Data set [1] in a line: Cyto-toxicity (MTT assay). The class given is cell-based. On the technique in general: Formazan colour is commonly taken as a measure of viable cells.
The nature of data set [2]: Single dose oral pharmacokinetic study. The class given is in vivo. To be noted: mouse, Mice oral PK @30 mg/kg, plasma, vehicle 10% Solutol+20% PEG; for AUC(0-t): read-out: AUC0-t; for Cmax: read-out: Cmax. The procedure: The test item was administered through oral route to animals (rat/mice) at 30 mg/kg dose in a suitable vehicle (10% Solutol+20% PEG) at 10 ml/kg dose volume. Blood samples (˜50 μL at each time point) were collected from retro-orbital plexus using K3 EDTA as anticoagulant in eppendorf tubes at defined time intervals 30 minutes, 1 hour, 2 hour, 4 hour, 8 hour, 24 hour & 48 hour under light ether anaesthesia. The samples were centrifuged at 3500×g to separate plasma and stored at −80° C. until analysis. Plasma 25 μl for Mice were processed as per described in sample preparation.
Standard solutions of the test compound 1 mg/mL solutions were prepared in DMSO and further dilutions were made in methanol. […] To the test compound plasma extraction was carried out using Acetonitrile precipitation. After reconstitution with solvent (50% Acetonitrile in Buffer) samples were analyzed by LCMSMS to get the concentrations to calculate PK Parameters.

As usually defined, the viability is a read-out of living cells in per cent, often relative to untreated cells. The term Cmax denotes the maximum level reached in the sampled fluid or tissue.

For `CC(C)C1=C2[C@H]3CC[C@@H]4[C@@]5(C)CC[C@H](OC(=O)[C@H]6C[C@@H](C(=O)O)C6(C)C)C(C)(C)[C@@H]5CC[C@@]4(C)[C@]3(C)CC[C@@]2(NC(=O)C(C)(C)NC(=O)c2ccc3[nH]c(-c4cnccn4)nc3c2)CC1=O` [Example 15, (1R,3S)-3-((((3aR,5aR,5bR,7aR,9S,11aR,11bR,13aS)-1-isopropyl-5a,5b,8,8,11a-pentamethyl-3a-(2-methyl-2-(2-(pyrazin-2-yl)-1H-benzo[d]imidazole-5-carboxamido)propanamido)-2-oxo-3,3a,4,5,5a,5b,6,7,7a,8,9,10,11,11a,11b,12,13,13a-octadecahydro-2H-cyclopenta[a]chrysen-9-yl)oxy)carbonyl)-2,2-dimethylcyclobutane-1-carboxylic acid], in data set [1], the viability at 4 days, 0.01 µM worked out at 44%; the viability at 4 days, 0.1 µM turned out to be 8%; the viability at 4 days, 1 µM stood at 2%. Also, in data set [2], the AUC(0-t) amounted to 141 µg·h/mL and the Cmax came to 12800 ng/mL.

For the compound `CC(C)C1=C2[C@H]3CC[C@@H]4[C@@]5(C)CC[C@H](OC(=O)[C@H]6C[C@@H](C(=O)O)C6(C)C)C(C)(C)[C@@H]5CC[C@@]4(C)[C@]3(C)CC[C@@]2(NC(=O)C(C)(C)NC(=O)c2cc(C(C)C)n[nH]2)CC1=O` [Example 17, (1R,3S)-3-((((3aR,5aR,5bR,7aR,9S,11aR,11bR,13aS)-1-isopropyl-3a-(2-(3-isopropyl-1H-pyrazole-5-carboxamido)-2-methylpropanamido)-5a,5b,8,8, 11a-pentamethyl-2-oxo-3,3a,4,5,5a,5b,6,7,7a,8,9,10,11,11a,11b,12,13,13a-octadecahydro-2H-cyclopenta[a]chrysen-9-yl)oxy)carbonyl)-2,2-dimethylcyclobutane-1-carboxylic acid], in data set [1], the viability at 4 days, 0.001 µM came to 81%; the viability at 4 days, 0.003 µM turned out to be 62%; the viability at 4 days, 0.01 µM amounted to 26%. Also, in data set [2], the AUC(0-t) was 333 µg·h/mL and the Cmax came out at 28600 ng/mL.

In the case of `CC(C)C1=C2[C@H]3CC[C@@H]4[C@@]5(C)CC[C@H](OC(=O)[C@H]6C[C@@H](C(=O)O)C6(C)C)C(C)(C)[C@@H]5CC[C@@]4(C)[C@]3(C)CC[C@@]2(NC(=O)C(C)(C)NC(=O)c2ccc(N3CCOCC3)cc2)CC1=O` [Example 18, (1R,3S)-3-((((3aR,5aR,5bR,7aR,9S,11aR,11bR,13aS)-1-isopropyl-5a,5b,8,8,11a-pentamethyl-3a-(2-methyl-2-(4-morpholinobenzamido)propanamido)-2-oxo-3,3a,4,5,5a,5b,6,7,7a,8,9,10,11,11a,11b,12,13,13a-octadecahydro-2H-cyclopenta[a]chrysen-9-yl)oxy)carbonyl)-2,2-dimethylcyclobutane-1-carboxylic acid], in data set [1], the viability at 4 days, 0.001 µM came out at 78%; the viability at 4 days, 0.003 µM was found to be 61%; the viability at 4 days, 0.01 µM was 29%. In data set [2], the AUC(0-t) worked out at 236 µg·h/mL and the Cmax stood at 15900 ng/mL.

In data set [1], `Cc1noc(C)c1C(=O)NC(C)(C)C(=O)N[C@@]12CC[C@]3(C)[C@H](CC[C@@H]4[C@@]5(C)CC[C@H](OC(=O)[C@H]6C[C@@H](C(=O)O)C6(C)C)C(C)(C)[C@@H]5CC[C@]43C)C1=C(C(C)C)C(=O)C2` [Example 19, (1R,3S)-3-((((3aR,5aR,5bR,7aR,9S,11aR,11bR,13aS)-3a-(2-(3,5-dimethylisoxazole-4-carboxamido)-2-methylpropanamido)-1-isopropyl-5a,5b,8,8,11a-pentamethyl-2-oxo-3,3a,4,5,5a,5b,6,7,7a,8,9,10,11,11a,11b,12,13,13a-octadecahydro-2H-cyclopenta[a]chrysen-9-yl)oxy)carbonyl)-2,2-dimethylcyclobutane-1-carboxylic acid] displayed a viability at 4 days, 0.001 µM of 79%; a viability at 4 days, 0.003 µM of 65%; a viability at 4 days, 0.01 µM of 40%. In addition, in data set [2], the AUC(0-t) came to 93 µg·h/mL and the Cmax amounted to 13900 ng/mL.
